Measured values reported in patent US11919901B2 (Syndax Pharmaceuticals, Inc., priority 2021, dated 2024).
pIC50: −log10 of the molar value.

The compounds below were run on MV4-11 cells (assay: Cell proliferation assay MV4;11 (CellTiter-Glo, 72 hours)). Conditions: Homo sapiens, MV4-11, 72 h, read-out: MV4; 11 IC50 (nM).
Assay type: cell-based
Summary of the method: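 Luminescent CellTiter-Glo readout after 72 h culture, 37 °C, 5% CO2, expressed relative to vehicle-treated wells, with maximal inhibition taken at the highest dose. MLL-rearranged MV4-11 leukemia cells; final compound range 0.632 to 2000 nM in eight steps.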

For `CCS(=O)(=O)N[C@@H]1CC[C@@H](CN2CCC3(CC2)CN(c2ncncc2Oc2ccc(F)cc2C(=O)N(C[C@@H](O)CO)C(C)C)C3)OC1` [Example 255, N-((R)-2,3-Dihydroxypropyl)-2-((4-(7-(((2S,5R)-5-(ethylsulfonamido)tetrahydro-2H-pyran-2-yl)methyl)-2,7-diazaspiro[3.5]nonan-2-yl)pyrimidin-5-yl)oxy)-5-fluoro-N-isopropylbenzamide], the IC50 was 100 to 1000 nM.

Same assay, conditions: Homo sapiens; MV4;11 leukemia cell line, 72 hours; read-out: MV4; 11 IC50

`CC(C)N(C(=O)c1cc(F)ccc1Oc1cncnc1N1CC2(CCN(C[C@@H]3CC[C@@H](NS(=O)(=O)N(C)C)CO3)CC2)C1)[C@@H]1CCOC1` [Example 167, 2-((4-(7-(((2S,5R)-5-((N,N-Dimethylsulfamoyl)amino)tetrahydro-2H-pyran-2-yl)methyl)-2,7-diazaspiro[3.5]nonan-2-yl)pyrimidin-5-yl)oxy)-5-fluoro-N-isopropyl-N-((R)-tetrahydrofuran-3-yl)benzamide] and `CCN(C)S(=O)(=O)N[C@@H]1CC[C@@H](CN2CCC3(CC2)CN(c2ncncc2Oc2ccc(F)cc2C(=O)N(C(C)C)[C@@H]2CCOC2)C3)OC1` [Example 170, 2-((4-(7-(((2S,5R)-5-((N-Ethyl-N-methylsulfamoyl)amino)tetrahydro-2H-pyran-2-yl)methyl)-2,7-diazaspiro[3.5]nonan-2-yl)pyrimidin-5-yl)oxy)-5-fluoro-N-isopropyl-N-((R)-tetrahydrofuran-3-yl)benzamide] cannot be ordered by pIC50: over 7.00 for the first, over 7.00 for the second.

`CCN(C(=O)c1cc(F)ccc1Oc1cncnc1N1CC2(CCN(C[C@@H]3CC[C@@H](NS(=O)(=O)c4cccc(Cl)c4)CO3)CC2)C1)C(C)C` [Example 57, 2-((4-(7-(((2S,5R)-5-((3-Chlorophenyl)sulfonamido)tetrahydro-2H-pyran-2-yl)methyl)-2,7-diazaspiro[3.5]nonan-2-yl)pyrimidin-5-yl)oxy)-N-ethyl-5-fluoro-N-isopropylbenzamide] and `CCN(C(=O)c1cc(F)ccc1Oc1cncnc1N1CC2(CCN(C[C@@H]3CC[C@@H](NS(C)(=O)=O)CO3)CC2)C1)C(C)C` [Example 1, N-Ethyl-5-fluoro-N-isopropyl-2-((4-(7-(((2S,5R)-5-(methylsulfonamido)tetrahydro-2H-pyran-2-yl)methyl)-2,7-diazaspiro[3.5]nonan-2-yl)pyrimidin-5-yl)oxy)benzamide] cannot be ordered by pIC50: over 7.00 for the first, over 7.00 for the second.

`CCNS(=O)(=O)N[C@@H]1CC[C@@H](CN2CCC3(CC2)CN(c2ncncc2Oc2ccc(F)cc2C(=O)N(CC(F)(F)F)C(C)C)C3)OC1` [Example 153, 2-((4-(7-(((2S,5R)-5-((N-Ethylsulfamoyl)amino)tetrahydro-2H-pyran-2-yl)methyl)-2,7-diazaspiro[3.5]nonan-2-yl)pyrimidin-5-yl)oxy)-5-fluoro-N-isopropyl-N-(2,2,2-trifluoroethyl)benzamide] and `CCS(=O)(=O)N[C@@H]1CC[C@@H](CN2CCC3(CC2)CN(c2ncncc2Oc2ccc(F)cc2C(=O)N(CC(F)(F)F)C(C)C)C3)OC1` [Example 152, 2-((4-(7-(((2S,5R)-5-(Ethylsulfonamido)tetrahydro-2H-pyran-2-yl)methyl)-2,7-diazaspiro[3.5]nonan-2-yl)pyrimidin-5-yl)oxy)-5-fluoro-N-isopropyl-N-(2,2,2-trifluoroethyl)benzamide] cannot be ordered by pIC50: over 7.00 for the first, over 7.00 for the second.

`CC(C)N(C(=O)c1cc(F)ccc1Oc1cncnc1N1CC2(CCN(C[C@@H]3CC[C@@H](NS(=O)(=O)N4CCC4)CO3)CC2)C1)C1COC1` [Example 248, 2-((4-(7-(((2S,5R)-5-(Azetidine-1-sulfonamido)tetrahydro-2H-pyran-2-yl)methyl)-2,7-diazaspiro[3.5]nonan-2-yl)pyrimidin-5-yl)oxy)-5-fluoro-N-isopropyl-N-(oxetan-3-yl)benzamide] and `CC(C)N(C(=O)c1cc(F)ccc1Oc1cncnc1N1CC2(CCN(C[C@@H]3CC[C@@H](NS(C)(=O)=O)CO3)CC2)C1)[C@@H]1CCOC1` [Example 166, 5-Fluoro-N-isopropyl-2-((4-(7-(((2S,5R)-5-(methylsulfonamido)tetrahydro-2H-pyran-2-yl)methyl)-2,7-diazaspiro[3.5]nonan-2-yl)pyrimidin-5-yl)oxy)-N-((R)-tetrahydrofuran-3-yl)benzamide] cannot be ordered by pIC50: over 7.00 for the first, over 7.00 for the second.

`C[C@@H]1COC[C@@H](C)N1C(=O)c1cc(F)ccc1Oc1cncnc1N1CC2(CCN(C[C@@H]3CC[C@@H](NS(=O)(=O)N(C)C4CC4)CO3)CC2)C1` [Example 129, N-{[(3R,6S)-6-{[2-(5-{2-[(3R,5R)-3,5-Dimethylmorpholine-4-carbonyl]-4-fluorophenoxy}pyrimidin-4-yl)-2,7-diazaspiro[3.5]nonan-7-yl]methyl}oxan-3-yl]sulfamoyl}-N-methylcyclopropanamine] and `C[C@@H]1COC[C@H](C)N1C(=O)c1cc(F)ccc1Oc1cncnc1N1CC2(CCN(C[C@@H]3CC[C@@H](NS(=O)(=O)C4CC4)CO3)CC2)C1` [Example 26, N-((3R,6S)-6-((2-(5-(2-((3S,5R)-3,5-Dimethylmorpholine-4-carbonyl)-4-fluorophenoxy)pyrimidin-4-yl)-2,7-diazaspiro[3.5]nonan-7-yl)methyl)tetrahydro-2H-pyran-3-yl)cyclopropanesulfonamide] cannot be ordered by pIC50: over 7.00 for the first, over 7.00 for the second.

`CCN(C(=O)c1cc(F)ccc1Oc1cncnc1N1CC2(CCN(C[C@@H]3CC[C@@H](NS(=O)(=O)CCOC)CO3)CC2)C1)C(C)C` [Example 8, N-Ethyl-5-fluoro-N-isopropyl-2-((4-(7-(((2S,5R)-5-((2-methoxyethyl)sulfonamido)tetrahydro-2H-pyran-2-yl)methyl)-2,7-diazaspiro[3.5]nonan-2-yl)pyrimidin-5-yl)oxy)benzamide] and `CCS(=O)(=O)N[C@@H]1CC[C@@H](CN2CCC3(CC2)CN(c2ncncc2Oc2ccc(F)cc2C(=O)N(C(C)C)C2CC2)C3)OC1` [Example 19, N-Cyclopropyl-2-((4-(7-(((2S,5R)-5-(ethylsulfonamido)tetrahydro-2H-pyran-2-yl)methyl)-2,7-diazaspiro[3.5]nonan-2-yl)pyrimidin-5-yl)oxy)-5-fluoro-N-isopropylbenzamide] cannot be ordered by pIC50: over 7.00 for the first, over 7.00 for the second.

`CCN(C)S(=O)(=O)N[C@@H]1CC[C@@H](CN2CCC3(CC2)CN(c2ncncc2Oc2ccc(F)cc2C(=O)N(C(C)C)[C@H]2CCOC2)C3)OC1` [Example 179, 2-((4-(7-(((2S,5R)-5-((N-Ethyl-N-methylsulfamoyl)amino)tetrahydro-2H-pyran-2-yl)methyl)-2,7-diazaspiro[3.5]nonan-2-yl)pyrimidin-5-yl)oxy)-5-fluoro-N-isopropyl-N-((S)-tetrahydrofuran-3-yl)benzamide] and `CC(C)N(C(=O)c1cc(F)ccc1Oc1cncnc1N1CC2(CCN(C[C@@H]3CC[C@@H](NS(=O)(=O)N(C)C)CO3)CC2)C1)C1CC(F)(F)C1` [Example 113, N-(3,3-Difluorocyclobutyl)-2-((4-(7-(((2S,5R)-5-((N,N-dimethylsulfamoyl)amino)tetrahydro-2H-pyran-2-yl)methyl)-2,7-diazaspiro[3.5]nonan-2-yl)pyrimidin-5-yl)oxy)-5-fluoro-N-isopropylbenzamide] cannot be ordered by pIC50: over 7.00 for the first, over 7.00 for the second.

`CC(C)N(CC(F)(F)F)C(=O)c1cc(F)ccc1Oc1cncnc1N1CC2(CCN(C[C@@H]3CC[C@@H](NS(=O)(=O)N(C)C)CO3)CC2)C1` [Example 107, 2-((4-(7-(((2S,5R)-5-((N,N-Dimethylsulfamoyl)amino)tetrahydro-2H-pyran-2-yl)methyl)-2,7-diazaspiro[3.5]nonan-2-yl)pyrimidin-5-yl)oxy)-5-fluoro-N-isopropyl-N-(2,2,2-trifluoroethyl)benzamide] and `CNS(=O)(=O)N[C@@H]1CC[C@@H](CN2CCC3(CC2)CN(c2ncncc2Oc2ccc(F)cc2C(=O)N(C(C)C)C(C)C)C3)OC1` [Example 143, 5-Fluoro-N,N-diisopropyl-2-((4-(7-(((2S,5R)-5-((N-methylsulfamoyl)amino)tetrahydro-2H-pyran-2-yl)methyl)-2,7-diazaspiro[3.5]nonan-2-yl)pyrimidin-5-yl)oxy)benzamide] cannot be ordered by pIC50: over 7.00 for the first, over 7.00 for the second.

`CNS(=O)(=O)N[C@@H]1CC[C@@H](CN2CCC3(CC2)CN(c2ncncc2Oc2ccc(F)cc2C(=O)N(C(C)C)C2CC(F)(F)C2)C3)OC1` [Example 154, N-(3,3-Difluorocyclobutyl)-5-fluoro-N-isopropyl-2-((4-(7-(((2S,5R)-5-((N-methylsulfamoyl)amino)tetrahydro-2H-pyran-2-yl)methyl)-2,7-diazaspiro[3.5]nonan-2-yl)pyrimidin-5-yl)oxy)benzamide] and `CCNS(=O)(=O)N[C@@H]1CC[C@@H](CN2CCC3(CC2)CN(c2ncncc2Oc2ccc(F)cc2C(=O)N(C(C)C)C(C)C)C3)OC1` [Example 144, 2-((4-(7-(((2S,5R)-5-((N-Ethylsulfamoyl)amino)tetrahydro-2H-pyran-2-yl)methyl)-2,7-diazaspiro[3.5]nonan-2-yl)pyrimidin-5-yl)oxy)-5-fluoro-N,N-diisopropylbenzamide] cannot be ordered by pIC50: over 7.00 for the first, over 7.00 for the second.

First: CC(C)N(CCC#N)C(=O)c1cc(F)ccc1Oc1cncnc1N1CC2(CCN(C[C@@H]3CC[C@@H](NS(=O)(=O)N4CCC4)CO3)CC2)C1 [Example 184, 2-((4-(7-(((2S,5R)-5-(Azetidine-1-sulfonamido)tetrahydro-2H-pyran-2-yl)methyl)-2,7-diazaspiro[3.5]nonan-2-yl)pyrimidin-5-yl)oxy)-N-(2-cyanoethyl)-5-fluoro-N-isopropylbenzamide]
Second: CCN(C(=O)c1cc(F)ccc1Oc1cncnc1N1CC2(CCN(C[C@@H]3CC[C@@H](NC(=O)NCC(F)F)CO3)CC2)C1)C(C)C [Example 41, 2-((4-(7-(((2S,5R)-5-(3-(2,2-Difluoroethyl)ureido)tetrahydro-2H-pyran-2-yl)methyl)-2,7-diazaspiro[3.5]nonan-2-yl)pyrimidin-5-yl)oxy)-N-ethyl-5-fluoro-N-isopropylbenzamide]
The pIC50 of the first is higher: over 7.00 for the first, 6.00 to 7.00 for the second.
